Data from patent publication US20230357099A1, “PYRAZOLO [3,4-B] PYRIDINE-4-CARBOXAMIDE NITRIFICATION INHIBITOR” (EUROCHEM ANTWERPTEN, priority 2020, published 2023).
One block for each molecule: values may come before it.

What was measured:
[1] = test system: agricultural soils; test: In soil nitrification inhibition assay; settings: for inhibition at 50 µM / inhibition at 100 µM: soil; for inhibition at 50 µM: 50 µM of each compound
Description: Top layer (0 to 10 cm) soil samples were collected from different fields in Belgium (Merelbeke, Sint-Laureins and Moorslede). Vegetation was removed and samples were taken from different plots. All soil samples were mixed and sieved (mesh size 2.8 mm) to filter large debris and homogenize soil. The soil was stored at 5° C. in plastic containers covered with Saran foil to prevent changes in microbial community composition and to maintain the original soil water content.
Soil water content was determined by drying 20 g soil for ≥ 48 h in a 60° C. oven and measuring weight before and after drying. Based on the soil water content (± 20%), compound solutions were prepared so that addition of 200 µl compound and 200 µl NH4Cl solution would result in a final compound concentration of 50 µM (unless otherwise stated) and a final NH4+ concentration of 10 mM. Per treatment, 5 small pots were filled with 20 g soil. Next, the soil was treated first with the respective compound solution and then with the NH4Cl solution. Per tray, positive (50 µM DMP) and negative controls (DMSO) were included. […] Demineralized water was added to the soil every 2 to 3 days to a soil weight of 20 g. In the end, each sample of 20 g soil was dissolved in 100 ml 1 M KCI and shaken for 1 hour, followed by filtration through Whatmann® paper. The filtrate was used to measure pH, NH4+ and NO3— concentrations. The nitrification percentage was calculated as the ratio of the consumed ammonium in treated soil versus the consumed ammonium in non-treated soil; the nitrification inhibition percentage was calculated as ‘100% - the nitrification percentage’.

[2] = test system: agricultural soils (Moorslede and Sint-Laureins); test: Greenhouse gas measurements from fertilized soil
Description: Two agricultural soils coming from fields in Moorslede and Sint-Laureins were used. Screw top vials were filled with 10 g soil. Vials were sealed with Parafilm and preincubated at 21° C. in the dark for 5 days. After pre-incubation, vials were ventilated using a fan. Then 100 µL of a 1 mM compound solution (10 % DMSO) was added, immediately followed by the addition of 100 µL 200 mM NH4Cl. Vials were closed gastight and 5 mL synthetic air was added to the headspace using a plastic syringe, followed by the transfer of 5 mL headspace to an evacuated 3 mL exetainer. Vials were incubated at 21° C. in the dark and background NO concentration was noted. At each sampling timepoint, 5 mL synthetic air was added again to the headspace using a plastic syringe, again followed by the transfer of 5 mL headspace to an evacuated 3 mL exetainer. Vials were ventilated and closed again, and new gas samples were transferred to exetainers like before. N2O in the exetainers were measured via gas chromatography (GC-14 B (Schimadzu) equipped with Haysep Q columns (same spec) and an ECD detector, He at c.a. 20 mL min, 70° C.). The CO2 and CH4 concentration in the 3 mL exetainer vials was measured using a GC (Trace-GC, Interscience) equipped with Haysep Q columns (80-100, ⅛″ divided in 2 part 0.25 and 2.0 m connected with a 6 port valve to allow backflush of water vapor) and a FID (CH4) and TCD (CO2). Carrier gas was He c.a. 20 mL/min kept at 90° C. NO concentration was measured directly by connecting a chemiluminescence NO detector (CLD 77 AM, eco physics) directly to the headspace using a needle.

[3] = test system: ammonia oxidizing archaea; test: Abundance of ammonia oxidizing archaea in DMP-treated soil
[4] = test system: Aliivibrio fischeri; type: cell-based
Description: Furthermore, a representative subset was tested on Aliivibrio fischeri growth (formerly known as Vibrio fischeri), a bacterium used in the Microtox assay to test toxic substances in different substrates such as (drinking) water, air, soils and sediments.
Two of these variants were also tested on Aliivibrio fischeri to test possible toxicity.

[5] = test system: ABIL (ammonia-binding liquid inoculum), nitrifying microbial enrichment containing both AOA and AOB; test: Nitrification inhibition assay on ABIL (ammonium consumption); type: cell-based; settings: 10 µM compound; structural variants outside formula (I); read-out: Relative nitrification (%) by ABIL treated with 10 µM compound
[6] = test system: Nitrososphaera viennensis; test: Nitrification inhibition assay on Nitrososphaera viennensis (nitrite, Griess); type: cell-based, Nitrososphaera viennensis EN76T; settings: Nitrososphaera viennensis; 2.5 µM compound; structural variants outside formula (I); read-out: Relative nitrification (%) by Nitrososphaera viennensis treated with 2.5 µM compound
Method in brief: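 N. viennensis EN76T cultures in FWM (pH 7.5, NH4Cl-supplemented), 5× concentrated, treated with compounds at 2.5 µM final (0.25% DMSO) and incubated 24 h at 42 °C. Nitrite measured by Griess absorbance at 540 nm against a standard curve. Relative nitrification normalized between DMSO (no compound) and 100 µM PTIO controls.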

[7] = 168 h, Soil 2, 7 days, 100 µM of each compound, 6 inhibitors alone and combined with Example 2
[8] = Soil 2, 7 days, 100 µM of each compound, 6 inhibitors alone and combined with Example 2

Compound: S=C1NCCS1 [1,3-thiazolidine-2-thione]
inhibition at 50 µM ([1]; 120 h, Soil 2, 5 days): 59%
inhibition at 100 µM [1, 7]: 46%

Compound: c1nc[nH]n1 [1,2,4-triazole, 1H-1,2,4-triazole]
Nitrification inhibition (%) [1, 8]: 32%

Compound: N#CN=C(N)N [DCD, dicyandiamide]
Nitrification inhibition (%) [1, 8]: 0%

Compound: Cc1cn[nH]c1C [DMP, 3,4-dimethylpyrazole]
Cumulative emission at indicated timepoint [ppb], N2O, 4 h ([2]; Moorslede soil, N2O): 0 ppb
Cumulative emission at indicated timepoint [ppb], N2O, 24 h ([2]; Moorslede soil, N2O): 0 ppb
Cumulative emission at indicated timepoint [ppb], N2O, 48 h ([2]; Moorslede soil, N2O): 0 ppb
Cumulative emission at indicated timepoint [ppb], N2O, 72 h ([2]; Moorslede soil, N2O): 0 ppb
Cumulative emission at indicated timepoint [ppb], N2O, 99 h ([2]; Moorslede soil, N2O): 0 ppb
Cumulative emission at indicated timepoint [ppb], NO, 4 h ([2]; Moorslede soil, NO): 48 ppb
Cumulative emission at indicated timepoint [ppb], NO, 24 h ([2]; Moorslede soil, NO): 49 ppb
Cumulative emission at indicated timepoint [ppb], NO, 48 h ([2]; Moorslede soil, NO): 47 ppb
Cumulative emission at indicated timepoint [ppb], NO, 72 h ([2]; Moorslede soil, NO): 64 ppb
Cumulative emission at indicated timepoint [ppb], NO, 99 h ([2]; Moorslede soil, NO): 64 ppb
Cumulative emission at indicated timepoint [ppb], N2O, 4 h ([2]; Sint-Laureins soil, N2O): 0 ppb
Cumulative emission at indicated timepoint [ppb], N2O, 24 h ([2]; Sint-Laureins soil, N2O): 0 ppb
Cumulative emission at indicated timepoint [ppb], N2O, 48 h ([2]; Sint-Laureins soil, N2O): 0 ppb
Cumulative emission at indicated timepoint [ppb], N2O, 72 h ([2]; Sint-Laureins soil, N2O): 0 ppb
Cumulative emission at indicated timepoint [ppb], N2O, 99 h ([2]; Sint-Laureins soil, N2O): 0 ppb
Cumulative emission at 215 h [ppb], N2O ([2]; Sint-Laureins soil, N2O, 215 h): 47 ppb
Cumulative emission at indicated timepoint [ppb], NO, 4 h ([2]; Sint-Laureins soil, NO): 26 ppb
Cumulative emission at indicated timepoint [ppb], NO, 24 h ([2]; Sint-Laureins soil, NO): 59 ppb
Cumulative emission at indicated timepoint [ppb], NO, 48 h ([2]; Sint-Laureins soil, NO): 98 ppb
Cumulative emission at indicated timepoint [ppb], NO, 72 h ([2]; Sint-Laureins soil, NO): 162 ppb
Cumulative emission at indicated timepoint [ppb], NO, 99 h ([2]; Sint-Laureins soil, NO): 187 ppb
Cumulative emission at 215 h [ppb], NO ([2]; Sint-Laureins soil, NO, 215 h): 243 ppb
inhibition at 50 µM ([1]; 72 h, Soil 2, 3 days): 68%
inhibition at 50 µM ([1]; 72 h, Soil 3, 3 days): 52%
inhibition at 50 µM ([1]; 168 h, Soil 1, 7 days): 88%
inhibition at 100 µM ([1]; 168 h, Soil 1, 7 days, 100 µM): 84%
inhibition at 50 µM ([1]; 168 h, Soil 2, 7 days): 14%
inhibition at 100 µM ([1]; 168 h, Soil 2, 7 days, 100 µM (Table 2)): 14%
inhibition at 100 µM [1, 7]: 54%
inhibition at 50 µM ([1]; 168 h, Soil 3, 7 days): 0%
inhibition at 100 µM ([1]; 168 h, Soil 3, 7 days, 100 µM): 0%
effect on the presence (abundance) of ammonia oxidizing archaea [3]: no inhibiting effect on the presence of archaea

Growth of Aliivibrio fischeri, relative to control without compound (%) [4]: 3%
Compound: N#Cc1nn(CN2CCSCC2)c2ccc(Cl)cc12 [drawing 171]

Compound: Cc1cn(C(CC(=O)O)C(=O)O)nc1C (centres unmarked) [DMPSA, 2-(3,4-dimethyl-pyrazol-1-yl)-succinic acid]
inhibition at 50 µM ([1]; 72 h, Soil 2, 3 days): 47%
inhibition at 100 µM [1, 7]: 44%

Growth of Aliivibrio fischeri, relative to control without compound (%) [4]: 40%
Compound: CC(C)n1ncc2cc(CNc3ccc4[nH]ncc4c3)cnc21 [drawing 170]

Compound: CCOc1ccc(CN(CC)C(=O)c2n[nH]c3ccccc23)cc1OC [Example 163]
activity at 10 µM [5]: 100%
activity at 2.5 µM [6]: 99%

Compound: Cc1nc2c(c(C)nn2C)c(C)c1CCC(=O)N1CCOCC1 [Example 60]
activity at 10 µM [5]: 100%
activity at 2.5 µM [6]: 100%

Compound: CC(C)n1ncc2cc(C(=O)O)cnc21 [Example 61]
activity at 10 µM [5]: 100%
activity at 2.5 µM [6]: 100%

Compound: COC(=O)c1n[nH]c2ccc(NS(=O)(=O)c3ccc(Cl)c(Cl)c3)cc12 [Example 101]
activity at 10 µM [5]: 90%
activity at 2.5 µM [6]: 94%

Compound: CC(C)n1ncc2cc(NC(=O)N3CCN(S(=O)(=O)N4CCCCCC4)CC3)cnc21 [Example 83]
activity at 10 µM [5]: 100%
activity at 2.5 µM [6]: 100%

Compound: Cc1nnc(NC(=O)c2cnc3c(cnn3C(C)C)c2)s1 [Example 55]
activity at 10 µM [5]: 100%
activity at 2.5 µM [6]: 100%

Compound: CC(C)n1ncc2cc(NC(=O)CN(C)S(=O)(=O)c3cccs3)cnc21 [Example 88]
activity at 10 µM [5]: 100%
activity at 2.5 µM [6]: 94%

Compound: CCC(C)n1ncc2c(C(=O)O)cc(C3CC3)nc21 (centres unmarked) [Example 32]
activity at 10 µM [5]: 94%
activity at 2.5 µM [6]: 90%

Compound: Cc1ccc2[nH]nc(C(=O)N3CC[S+]([O-])C(C)(C)C3)c2c1 (centres unmarked) [Example 109]
activity at 10 µM [5]: 97%
activity at 2.5 µM [6]: 100%

Compound: Clc1ccc2c(Nc3ccc4[nH]ncc4c3)ncnc2c1 [Example 99]
activity at 10 µM [5]: 90%
activity at 2.5 µM [6]: 100%

Compound: CCN(CCC#N)Cn1nc(Cl)c2ccccc21 [Example 150]
activity at 10 µM [5]: 100%
activity at 2.5 µM [6]: 100%

Compound: CC(C)n1ncc2cc(NC(=O)C3CC3(Cl)Cl)cnc21 (centres unmarked) [Example 19]
activity at 10 µM [5]: 90%
activity at 2.5 µM [6]: 100%

Compound: Cc1nn(-c2ccc(F)cc2)c2nc3c(cc12)C(=O)CC(C)(C)C3 [Example 72]
activity at 10 µM [5]: 100%
activity at 2.5 µM [6]: 99%

Compound: O=S(=O)(Nc1ccc2cn[nH]c2c1)c1ccc(S(=O)(=O)N2CCCC2)cc1 [Example 118]
activity at 10 µM [5]: 99%
activity at 2.5 µM [6]: 100%

Compound: c1cc(CNCCc2nc(C3CC3)cs2)c2[nH]ncc2c1 [Example 130]
activity at 10 µM [5]: 100%
activity at 2.5 µM [6]: 94%

Compound: CCN(CC1CCOC1)C(=O)c1cnc2c(cnn2C(C)C)c1 (centres unmarked) [Example 29]
activity at 10 µM [5]: 92%
activity at 2.5 µM [6]: 100%

Compound: Fc1cccnc1N1CCC(NCc2cccc3cn[nH]c23)C1 (centres unmarked) [Example 112]
activity at 10 µM [5]: 98%
activity at 2.5 µM [6]: 100%
